Measured values taken from the NIST ThermoML archive (doi:10.1021/je060415l).
± gives the expanded uncertainty stated by the source.

Conditions: Liquid, expansion method

Structure (SMILES): CO [methanol]
- isothermal compressibility (263.17 K, 19270 kPa): 8.26e-07 ± 4.3e-08 1/kPa
- isothermal compressibility (263.17 K, 22000 kPa): 8.07e-07 ± 4.3e-08 1/kPa
- isothermal compressibility (263.17 K, 24860 kPa): 7.88e-07 ± 4.2e-08 1/kPa
- isothermal compressibility (263.17 K, 27740 kPa): 7.73e-07 ± 4.2e-08 1/kPa
- isothermal compressibility (263.17 K, 30600 kPa): 7.56e-07 ± 4.2e-08 1/kPa
- isothermal compressibility (263.17 K, 33550 kPa): 7.41e-07 ± 4.1e-08 1/kPa
- isothermal compressibility (263.17 K, 36560 kPa): 7.26e-07 ± 4.1e-08 1/kPa
- isothermal compressibility (263.17 K, 39590 kPa): 7.11e-07 ± 4.1e-08 1/kPa
- isothermal compressibility (263.17 K, 42670 kPa): 6.97e-07 ± 4e-08 1/kPa
- isothermal compressibility (263.17 K, 45790 kPa): 6.84e-07 ± 4e-08 1/kPa
- isothermal compressibility (263.17 K, 48960 kPa): 6.72e-07 ± 4e-08 1/kPa
- isothermal compressibility (263.17 K, 52170 kPa): 6.58e-07 ± 4e-08 1/kPa
- isothermal compressibility (263.17 K, 55430 kPa): 6.46e-07 ± 3.9e-08 1/kPa
- isothermal compressibility (263.17 K, 58830 kPa): 6.32e-07 ± 3.9e-08 1/kPa
- isothermal compressibility (263.17 K, 62280 kPa): 6.21e-07 ± 3.9e-08 1/kPa
- isothermal compressibility (263.17 K, 65720 kPa): 6.12e-07 ± 3.9e-08 1/kPa
- isothermal compressibility (263.17 K, 69340 kPa): 5.97e-07 ± 3.8e-08 1/kPa
- isothermal compressibility (263.17 K, 73030 kPa): 5.88e-07 ± 3.8e-08 1/kPa
- isothermal compressibility (263.17 K, 76640 kPa): 5.78e-07 ± 3.8e-08 1/kPa
- isothermal compressibility (263.17 K, 80310 kPa): 5.68e-07 ± 3.8e-08 1/kPa
- isothermal compressibility (263.17 K, 84120 kPa): 5.57e-07 ± 3.8e-08 1/kPa
- isothermal compressibility (263.17 K, 88070 kPa): 5.47e-07 ± 3.7e-08 1/kPa
- isothermal compressibility (263.17 K, 92050 kPa): 5.52e-07 ± 3.7e-08 1/kPa
- isothermal compressibility (263.17 K, 95980 kPa): 5.33e-07 ± 3.7e-08 1/kPa
- isothermal compressibility (263.17 K, 100060 kPa): 5.22e-07 ± 3.7e-08 1/kPa
- isothermal compressibility (273.17 K, 1010 kPa): 1.05e-06 ± 4.9e-08 1/kPa
- isothermal compressibility (273.17 K, 3000 kPa): 1.02e-06 ± 4.8e-08 1/kPa
- isothermal compressibility (273.17 K, 5050 kPa): 1e-06 ± 4.8e-08 1/kPa
- isothermal compressibility (273.17 K, 7100 kPa): 9.82e-07 ± 4.7e-08 1/kPa
- isothermal compressibility (273.17 K, 9170 kPa): 9.62e-07 ± 4.7e-08 1/kPa
- isothermal compressibility (273.17 K, 11220 kPa): 9.47e-07 ± 4.6e-08 1/kPa
- isothermal compressibility (273.17 K, 13320 kPa): 9.25e-07 ± 4.6e-08 1/kPa
- isothermal compressibility (273.17 K, 15430 kPa): 9.12e-07 ± 4.5e-08 1/kPa
- isothermal compressibility (273.17 K, 17510 kPa): 8.9e-07 ± 4.5e-08 1/kPa
- isothermal compressibility (273.17 K, 19750 kPa): 8.72e-07 ± 4.4e-08 1/kPa
- isothermal compressibility (273.17 K, 22140 kPa): 8.56e-07 ± 4.4e-08 1/kPa
- isothermal compressibility (273.17 K, 24880 kPa): 8.26e-07 ± 4.3e-08 1/kPa
- isothermal compressibility (273.17 K, 27900 kPa): 8.1e-07 ± 4.3e-08 1/kPa
- isothermal compressibility (273.17 K, 30870 kPa): 7.91e-07 ± 4.3e-08 1/kPa
- isothermal compressibility (273.17 K, 38720 kPa): 7.29e-07 ± 4.1e-08 1/kPa
- isothermal compressibility (273.17 K, 42290 kPa): 7.21e-07 ± 4.1e-08 1/kPa
- isothermal compressibility (273.17 K, 45710 kPa): 7.11e-07 ± 4.1e-08 1/kPa
- isothermal compressibility (273.17 K, 49180 kPa): 6.92e-07 ± 4e-08 1/kPa
- isothermal compressibility (273.17 K, 52690 kPa): 6.79e-07 ± 4e-08 1/kPa
- isothermal compressibility (273.17 K, 55980 kPa): 6.73e-07 ± 4e-08 1/kPa
- isothermal compressibility (273.17 K, 59210 kPa): 6.57e-07 ± 4e-08 1/kPa
- isothermal compressibility (273.17 K, 62510 kPa): 6.46e-07 ± 3.9e-08 1/kPa
- isothermal compressibility (273.17 K, 65790 kPa): 6.35e-07 ± 3.9e-08 1/kPa
- isothermal compressibility (273.17 K, 69160 kPa): 6.24e-07 ± 3.9e-08 1/kPa
- isothermal compressibility (273.17 K, 72680 kPa): 6.19e-07 ± 3.9e-08 1/kPa
- isothermal compressibility (273.17 K, 76170 kPa): 6.02e-07 ± 3.8e-08 1/kPa
- isothermal compressibility (273.17 K, 79630 kPa): 5.9e-07 ± 3.8e-08 1/kPa
- isothermal compressibility (273.17 K, 83150 kPa): 5.82e-07 ± 3.8e-08 1/kPa
- isothermal compressibility (273.17 K, 86550 kPa): 5.73e-07 ± 3.8e-08 1/kPa
- isothermal compressibility (273.17 K, 90030 kPa): 5.63e-07 ± 3.8e-08 1/kPa
- isothermal compressibility (273.17 K, 94000 kPa): 5.47e-07 ± 3.7e-08 1/kPa
- isothermal compressibility (273.17 K, 98210 kPa): 5.44e-07 ± 3.7e-08 1/kPa
- isothermal compressibility (298.16 K, 740 kPa): 1.27e-06 ± 5.5e-08 1/kPa
- isothermal compressibility (298.16 K, 2360 kPa): 1.22e-06 ± 5.4e-08 1/kPa
- isothermal compressibility (298.16 K, 4230 kPa): 1.19e-06 ± 5.3e-08 1/kPa
- isothermal compressibility (298.16 K, 6090 kPa): 1.17e-06 ± 5.2e-08 1/kPa
- isothermal compressibility (298.16 K, 7970 kPa): 1.14e-06 ± 5.1e-08 1/kPa
- isothermal compressibility (298.16 K, 9920 kPa): 1.12e-06 ± 5.1e-08 1/kPa
- isothermal compressibility (298.16 K, 11950 kPa): 1.09e-06 ± 5e-08 1/kPa
- isothermal compressibility (298.16 K, 14020 kPa): 1.06e-06 ± 4.9e-08 1/kPa
- isothermal compressibility (298.16 K, 16080 kPa): 1.04e-06 ± 4.9e-08 1/kPa
- isothermal compressibility (298.16 K, 18190 kPa): 1.02e-06 ± 4.8e-08 1/kPa
- isothermal compressibility (298.16 K, 20320 kPa): 1e-06 ± 4.8e-08 1/kPa
- isothermal compressibility (298.16 K, 22490 kPa): 9.82e-07 ± 4.7e-08 1/kPa
- isothermal compressibility (298.16 K, 24710 kPa): 9.59e-07 ± 4.7e-08 1/kPa
- isothermal compressibility (298.16 K, 26990 kPa): 9.37e-07 ± 4.6e-08 1/kPa
- isothermal compressibility (298.16 K, 29290 kPa): 9.23e-07 ± 4.6e-08 1/kPa
- isothermal compressibility (298.16 K, 31700 kPa): 8.99e-07 ± 4.5e-08 1/kPa
- isothermal compressibility (298.16 K, 34090 kPa): 8.85e-07 ± 4.5e-08 1/kPa
- isothermal compressibility (298.16 K, 36550 kPa): 8.65e-07 ± 4.4e-08 1/kPa
- isothermal compressibility (298.16 K, 39120 kPa): 8.47e-07 ± 4.4e-08 1/kPa
- isothermal compressibility (298.16 K, 41740 kPa): 8.3e-07 ± 4.3e-08 1/kPa
- isothermal compressibility (298.16 K, 44450 kPa): 8.14e-07 ± 4.3e-08 1/kPa
- isothermal compressibility (298.16 K, 47180 kPa): 7.96e-07 ± 4.3e-08 1/kPa
- isothermal compressibility (298.16 K, 49870 kPa): 7.83e-07 ± 4.2e-08 1/kPa
- isothermal compressibility (298.16 K, 52590 kPa): 7.68e-07 ± 4.2e-08 1/kPa
- isothermal compressibility (298.16 K, 55320 kPa): 7.57e-07 ± 4.2e-08 1/kPa
- isothermal compressibility (298.16 K, 58040 kPa): 7.43e-07 ± 4.1e-08 1/kPa
- isothermal compressibility (298.16 K, 60870 kPa): 7.28e-07 ± 4.1e-08 1/kPa
- isothermal compressibility (298.16 K, 63900 kPa): 7.14e-07 ± 4.1e-08 1/kPa
- isothermal compressibility (298.16 K, 66990 kPa): 7.03e-07 ± 4.1e-08 1/kPa
- isothermal compressibility (298.16 K, 69960 kPa): 6.89e-07 ± 4e-08 1/kPa
- isothermal compressibility (298.16 K, 73410 kPa): 6.65e-07 ± 4e-08 1/kPa
- isothermal compressibility (298.16 K, 77320 kPa): 6.55e-07 ± 4e-08 1/kPa
- isothermal compressibility (298.16 K, 80990 kPa): 6.49e-07 ± 3.9e-08 1/kPa
- isothermal compressibility (298.16 K, 84450 kPa): 6.37e-07 ± 3.9e-08 1/kPa
- isothermal compressibility (298.16 K, 87890 kPa): 6.41e-07 ± 3.9e-08 1/kPa
- isothermal compressibility (298.16 K, 91290 kPa): 6.17e-07 ± 3.9e-08 1/kPa
- isothermal compressibility (298.16 K, 94830 kPa): 6.05e-07 ± 3.8e-08 1/kPa
- isothermal compressibility (298.16 K, 98440 kPa): 6.02e-07 ± 3.8e-08 1/kPa
